Patent US8853214B2, “Pyridazine compounds for controlling invertebrate pests” (BASF SE, priority 2010, dated 2014)

Test system: Aphis craccivora
Assay: Cowpea aphid (Aphis craccivora) spray test on potted cowpea plants
Format: in vivo
Conditions: in comparison with untreated controls, population reduction assessed after 24, 72 and 120 hours
Description: II.1 Cowpea Aphid (Aphis craccivora)
The active compounds were formulated in 50:50 (vol:vol) acetone:water. The test solution was prepared at the day of use.
Potted cowpea plants colonized with 100-150 aphids of various stages were sprayed after the pest population had been recorded. Population reduction was assessed after 24, 72, and 120 hours.

**Q.** Which mortality at 500 ppm does the source give for `O=C(Nc1ccnnc1)c1ccco1` [II.31, Furan-2-carboxylic acid pyridazin-4-ylamide] here?
**A.** Its mortality at 500 ppm is at least 75%.
